ChEMBL document CHEMBL1201862, “PubChem BioAssay data set” (2004)
Calls of active or inactive are those of the source. Cut-off read from the data, not from the text of the source, for most assays here: actives have a measured EC50 and inactives only a lower limit.

What was measured:
INS1 = experiment: INS-1E survival protection against cytokine death – cell-based, luminescence, retest, dose response (AID 449756); assay type: functional; settings: Rattus norvegicus;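 note: cell death triggered by IL-1 beta plus TNF-alpha plus IFN-gamma mixture; protective hits raise ATP signal compared with cytokine alone wells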
[1] = microbe, parasite or virus in culture; assay type: functional; settings: Mycobacterium tuberculosis
Protein RecA = target: T1, Protein RecA (Mycobacterium tuberculosis, UniProt P9WHJ3); experiment: Fluorescence Cell-Free Homogeneous Dose Retest to Identify Inhibitors of RecA-Intein Splicing Activity. [Related pubchem assays (depositor defined):AID2097, AID2223, AID489010, AID492950]; assay type: functional
T1 sequence (P9WHJ3 whole entry): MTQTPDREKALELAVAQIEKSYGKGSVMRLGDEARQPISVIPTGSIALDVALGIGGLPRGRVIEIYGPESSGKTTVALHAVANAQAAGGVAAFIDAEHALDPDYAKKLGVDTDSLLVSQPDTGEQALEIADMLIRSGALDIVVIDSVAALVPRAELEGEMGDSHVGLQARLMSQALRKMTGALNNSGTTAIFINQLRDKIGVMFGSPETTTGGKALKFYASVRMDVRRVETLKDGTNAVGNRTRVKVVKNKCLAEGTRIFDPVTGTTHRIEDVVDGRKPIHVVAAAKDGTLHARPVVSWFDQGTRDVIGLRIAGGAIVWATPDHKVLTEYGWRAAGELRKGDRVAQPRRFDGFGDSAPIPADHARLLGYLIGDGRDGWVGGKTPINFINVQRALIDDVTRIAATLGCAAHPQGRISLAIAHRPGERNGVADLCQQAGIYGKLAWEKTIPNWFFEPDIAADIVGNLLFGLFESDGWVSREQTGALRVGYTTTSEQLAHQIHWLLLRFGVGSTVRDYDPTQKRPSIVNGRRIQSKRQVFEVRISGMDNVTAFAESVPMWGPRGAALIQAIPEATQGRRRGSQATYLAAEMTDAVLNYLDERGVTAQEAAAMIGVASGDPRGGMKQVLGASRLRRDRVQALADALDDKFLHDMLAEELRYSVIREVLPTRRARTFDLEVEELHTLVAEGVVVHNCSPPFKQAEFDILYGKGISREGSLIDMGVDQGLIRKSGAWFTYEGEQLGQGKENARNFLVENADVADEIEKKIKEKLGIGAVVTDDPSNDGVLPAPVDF

[2] = target: T2, Replicative DNA helicase DnaB (Mycobacterium tuberculosis, UniProt P9WMR3); experiment: DnaB intein splicing inhibitors, dose response, biochemical, cell-free fluorescence (AID 449749); assay type: functional
T2 sequence (P9WMR3 whole entry): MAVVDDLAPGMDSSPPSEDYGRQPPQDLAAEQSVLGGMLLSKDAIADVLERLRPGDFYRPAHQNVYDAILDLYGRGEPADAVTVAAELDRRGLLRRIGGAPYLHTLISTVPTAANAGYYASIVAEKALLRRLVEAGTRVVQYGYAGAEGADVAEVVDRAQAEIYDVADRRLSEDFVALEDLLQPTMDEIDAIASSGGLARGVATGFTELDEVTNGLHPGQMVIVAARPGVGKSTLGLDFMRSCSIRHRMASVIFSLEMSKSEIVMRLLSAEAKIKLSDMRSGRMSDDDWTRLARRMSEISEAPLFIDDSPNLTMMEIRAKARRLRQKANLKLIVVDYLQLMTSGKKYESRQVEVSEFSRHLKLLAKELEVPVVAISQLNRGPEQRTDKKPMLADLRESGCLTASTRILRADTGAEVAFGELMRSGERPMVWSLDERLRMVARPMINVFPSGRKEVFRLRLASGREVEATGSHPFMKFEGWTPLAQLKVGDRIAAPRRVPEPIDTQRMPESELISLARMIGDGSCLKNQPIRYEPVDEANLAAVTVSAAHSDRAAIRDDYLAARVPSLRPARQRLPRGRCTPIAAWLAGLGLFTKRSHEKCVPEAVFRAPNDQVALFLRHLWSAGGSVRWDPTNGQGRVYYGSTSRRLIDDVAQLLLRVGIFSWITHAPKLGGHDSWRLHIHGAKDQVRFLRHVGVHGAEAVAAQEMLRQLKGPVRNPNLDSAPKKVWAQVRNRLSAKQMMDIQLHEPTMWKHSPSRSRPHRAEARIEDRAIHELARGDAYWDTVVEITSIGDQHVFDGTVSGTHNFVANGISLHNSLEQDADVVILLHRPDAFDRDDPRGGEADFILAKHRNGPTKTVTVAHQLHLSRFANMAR

[3] = target: T3, Heat shock factor protein 1 (Mus musculus, UniProt P38532); experiment: enhancement of HSF1-driven luciferase signal – cell-based, NIH3T3, luminescence, dose retest, confirmation (AID 435004); assay type: functional;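 note: stress induced by proteasome inhibitor MG132 added 30 min after compound; luciferase reporter driven by HSF1 response element in NIH3T3 cells; actives raise luminescence as potentiators of the MG132 stress response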
T3 sequence (P38532 whole entry): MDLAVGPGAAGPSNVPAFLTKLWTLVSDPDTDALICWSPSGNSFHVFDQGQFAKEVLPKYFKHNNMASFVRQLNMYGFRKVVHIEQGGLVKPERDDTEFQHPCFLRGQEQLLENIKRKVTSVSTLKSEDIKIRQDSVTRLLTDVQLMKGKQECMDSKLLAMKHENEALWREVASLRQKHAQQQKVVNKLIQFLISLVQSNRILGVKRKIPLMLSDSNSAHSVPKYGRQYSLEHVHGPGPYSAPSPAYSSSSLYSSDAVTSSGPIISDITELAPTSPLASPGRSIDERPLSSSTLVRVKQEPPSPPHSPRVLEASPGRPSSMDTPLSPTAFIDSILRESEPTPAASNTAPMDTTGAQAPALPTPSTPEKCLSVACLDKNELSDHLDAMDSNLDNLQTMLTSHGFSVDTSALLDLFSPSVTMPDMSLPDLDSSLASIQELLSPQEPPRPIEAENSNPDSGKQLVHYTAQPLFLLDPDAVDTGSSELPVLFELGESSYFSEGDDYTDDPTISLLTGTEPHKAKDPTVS

Cytochrome P450 1A2 = target: T4, Cytochrome P450 1A2 (Homo sapiens, UniProt P05177);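 note: PubChem cytochrome P450 panel assay, CYP1A2 panel member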
T4 sequence (P05177 whole entry): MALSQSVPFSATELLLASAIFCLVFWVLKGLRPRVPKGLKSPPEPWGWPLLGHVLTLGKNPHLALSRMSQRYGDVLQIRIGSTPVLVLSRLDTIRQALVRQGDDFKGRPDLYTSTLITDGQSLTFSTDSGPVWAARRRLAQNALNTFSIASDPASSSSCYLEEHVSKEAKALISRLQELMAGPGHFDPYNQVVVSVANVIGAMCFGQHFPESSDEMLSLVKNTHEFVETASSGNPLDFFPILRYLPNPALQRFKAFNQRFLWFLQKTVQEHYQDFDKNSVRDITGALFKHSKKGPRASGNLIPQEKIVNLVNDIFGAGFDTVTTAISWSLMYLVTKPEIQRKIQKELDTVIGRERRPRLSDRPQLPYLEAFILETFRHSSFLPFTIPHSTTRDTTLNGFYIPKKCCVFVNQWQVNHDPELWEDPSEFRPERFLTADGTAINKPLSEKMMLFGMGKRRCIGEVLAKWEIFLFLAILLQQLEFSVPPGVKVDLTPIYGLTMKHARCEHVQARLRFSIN

Cytochrome P450 3A4 = Cytochrome P450 3A4 (Homo sapiens, UniProt P08684);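 note: CYP3A4 tested as one member of a cytochrome P450 panel screen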
Chain of Cytochrome P450 3A4 (P08684 whole entry): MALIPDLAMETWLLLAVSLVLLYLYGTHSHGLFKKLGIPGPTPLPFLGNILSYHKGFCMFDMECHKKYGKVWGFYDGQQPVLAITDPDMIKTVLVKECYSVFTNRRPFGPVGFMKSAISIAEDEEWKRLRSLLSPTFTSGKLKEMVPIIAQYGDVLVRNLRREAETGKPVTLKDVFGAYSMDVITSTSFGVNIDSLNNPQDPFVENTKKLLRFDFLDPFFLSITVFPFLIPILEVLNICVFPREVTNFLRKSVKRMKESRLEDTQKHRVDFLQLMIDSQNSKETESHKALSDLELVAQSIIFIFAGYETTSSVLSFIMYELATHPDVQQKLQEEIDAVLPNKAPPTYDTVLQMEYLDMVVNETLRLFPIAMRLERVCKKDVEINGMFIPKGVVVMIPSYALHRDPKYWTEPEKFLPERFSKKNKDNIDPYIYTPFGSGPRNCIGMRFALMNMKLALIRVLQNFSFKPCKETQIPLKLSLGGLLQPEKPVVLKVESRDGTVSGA

Cytochrome P450 2D6 = Cytochrome P450 2D6 (Homo sapiens, UniProt P10635);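 note: CYP2D6 member of a cytochrome P450 panel assay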
Chain of Cytochrome P450 2D6 (P10635 whole entry): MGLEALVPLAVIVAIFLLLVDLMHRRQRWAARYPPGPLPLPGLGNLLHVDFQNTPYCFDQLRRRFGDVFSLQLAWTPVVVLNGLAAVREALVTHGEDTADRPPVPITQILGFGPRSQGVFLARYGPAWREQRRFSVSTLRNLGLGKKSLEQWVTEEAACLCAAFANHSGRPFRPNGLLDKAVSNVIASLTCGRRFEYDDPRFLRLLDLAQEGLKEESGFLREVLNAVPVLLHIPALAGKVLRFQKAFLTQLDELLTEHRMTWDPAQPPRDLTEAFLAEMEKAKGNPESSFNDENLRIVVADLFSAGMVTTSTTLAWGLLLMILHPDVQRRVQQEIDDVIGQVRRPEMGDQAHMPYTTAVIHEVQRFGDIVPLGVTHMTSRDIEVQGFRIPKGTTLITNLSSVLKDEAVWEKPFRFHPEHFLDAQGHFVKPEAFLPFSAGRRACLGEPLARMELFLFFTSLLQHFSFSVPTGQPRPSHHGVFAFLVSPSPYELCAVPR

Streptococcus = experiment: GAS UMAA2166 growth inhibition – luminescence, BacTiterGlo, counter-screen for streptokinase expression inhibitor project, dose response (AID 1915); assay type: functional, organism-based;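 note: potency for reduction of bacterial viability or growth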
[4] = tested on: Streptococcus sp. 'group A'; experiment: Streptococcus pyogenes SK(-)GAS viability under kanamycin – luminescence, BacTiterGlo, confirmation, counter-screen for streptokinase expression inhibitor project, dose response (AID 1900); assay type: functional, organism-based
Streptokinase A = target: T5, Streptokinase A (Streptococcus pyogenes serotype M1, UniProt P10520); experiment: viability-normalized secreted streptokinase activity reduction – plasminogen activation absorbance, OD405, dose response (AID 1914); assay type: functional, Streptococcus pyogenes M1 GAS;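 note: secreted streptokinase activity via plasminogen activation per viability signal from cell pellet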
T5 sequence (P10520 whole entry): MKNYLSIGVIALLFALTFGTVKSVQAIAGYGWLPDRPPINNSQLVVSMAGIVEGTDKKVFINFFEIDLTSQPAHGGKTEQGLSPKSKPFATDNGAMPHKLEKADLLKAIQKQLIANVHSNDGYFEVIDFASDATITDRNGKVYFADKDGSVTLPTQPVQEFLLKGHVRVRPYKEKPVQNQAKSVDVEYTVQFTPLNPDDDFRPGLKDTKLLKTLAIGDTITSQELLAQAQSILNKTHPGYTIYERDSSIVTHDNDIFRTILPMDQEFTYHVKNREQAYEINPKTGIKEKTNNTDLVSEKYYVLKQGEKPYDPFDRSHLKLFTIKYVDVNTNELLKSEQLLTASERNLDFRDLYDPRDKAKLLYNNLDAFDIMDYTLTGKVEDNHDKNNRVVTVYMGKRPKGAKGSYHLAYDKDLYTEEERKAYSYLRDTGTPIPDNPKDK

[5] = Trypanosoma cruzi growth suppression in host cells – NIH3T3 host cells, beta-gal luminescence, confirmation (AID 2044); assay type: functional, cell-based;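 note: intracellular parasites grown in NIH/3T3 mouse fibroblasts as host cells; luminescent beta-galactosidase reporter signal from transgenic T. cruzi replicating inside host cells; inhibitors lower the luminescence signal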
[6] = NIH3T3 cell viability loss – ATP luminescence, mouse fibroblasts, counter-screen, dose response (AID 2010); assay type: functional, cell-based;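 note: cells exposed to compound for about 90 hours before reading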

SMILES: C/C(=N/Nc1nc(-c2ccccc2)cc(-c2ccc(F)cc2)n1)c1cccc(N)c1
- AC50 (INS1): 3.64 µM (active)

SMILES: CCOC(=O)c1nnc(-c2ccccc2)nc1Sc1ccccc1Cl
- CC50 [1]: > 40 µM (active)
- EC50 (Protein RecA): 0.686 µM (active)
- AC50 [2]: 2.36 µM (active)
- EC50 [3]: 8.48 µM (active)

SMILES: C/C(CC(=O)Nc1ccccn1)=N\NC(=O)c1ccncc1
- EC50 (Protein RecA): 1.94 µM (active)
- AC50 [2]: 2.86 µM (active)

SMILES: CCCCCCCCSc1nnc(CSc2nc3nc(C)cc(C)n3n2)o1
- AC50 (Cytochrome P450 1A2): 31.6 µM (inconclusive)
- AC50 (INS1): 14.9 µM (active)
- AC50 (Cytochrome P450 3A4): 35.5 µM (inconclusive)
- AC50 (Cytochrome P450 2D6): 28.2 µM (inconclusive)

SMILES: COc1ccccc1NC(=O)Nc1nc(CC(=O)Nc2cc(F)ccc2F)cs1
- EC50 (Streptococcus): 30.9 µM (active)
- EC50 [4]: 11.5 µM (active)
- EC50 (Streptokinase A): > 150 µM (not active)

SMILES: COc1cccc(CN2CCN(Cc3ccc(C#CC(C)(C)O)s3)CC2CCO)c1 (centres undefined)
- EC50 (Protein RecA): > 380 µM (inactive)
- AC50 [2]: > 380 µM (inactive)

SMILES: COc1ccc(-n2c(=S)[nH]c3cc(C(=O)Nc4ccccc4OC)ccc3c2=O)cc1
- AC50 (INS1): 6.62 µM (active)

SMILES: COc1ccc(OC)c(-c2[nH]nc3c2C(c2ccco2)C(C#N)=C(N)O3)c1 (centres undefined)
- EC50 (Protein RecA): 3.22 µM (active)
- AC50 [2]: 185 µM (active)

SMILES: Cc1oc(C(C)(C)C)cc1C(=O)N1CCN(C(c2ccccc2)c2ccccc2)CC1
- EC50 (Streptococcus): 16.4 µM (active)
- EC50 [4]: 2.64 µM (active)
- EC50 (Streptokinase A): 17.6 µM (active)

SMILES: Cc1ccc(C2C(C#N)=C(N)Oc3[nH]nc(-c4ccccc4)c32)o1 (centres undefined)
- EC50 (Protein RecA): 19.3 µM (active)
- AC50 [2]: 4.75 µM (active)

SMILES: CCCn1c(=O)[nH]c(=O)c2c1nc(-c1ccc(OC(F)F)c(OC)c1)n2CCOC
- EC50 (Protein RecA): > 380 µM (inactive)
- AC50 [2]: > 380 µM (inactive)

SMILES: CCCCCCCCCCCCC(NC(C)=O)(C(=O)OCC)C(=O)OCC
- EC50 (Streptococcus): 8.56 µM (active)
- EC50 [4]: 6.45 µM (active)
- EC50 (Streptokinase A): > 150 µM (not active)

SMILES: COCC/N=C1/Sc2nc3ccc(C)cc3cc2CN1Cc1ccco1
- CC50 [1]: > 40 µM (active)

SMILES: COCCn1nnnc1C(c1cc2cc(OC)ccc2nc1O)N1CCC(Cc2ccccc2)CC1 (centres undefined)
- CC50 [1]: > 40 µM (active)

SMILES: CC1(C)S[C@@H]2[C@H](NC(=O)COc3ccccc3)C(=O)N2C1C(=O)OCc1cc2ccccc2n1S(=O)(=O)c1ccccc1 (some centres undefined)
- EC50 (Streptococcus): 39.9 µM (active)
- EC50 [4]: 6.32 µM (active)
- EC50 (Streptokinase A): 23.6 µM (active)

SMILES: O=C(C/C=N\OCc1c(Cl)cccc1Cl)Oc1ccc(Cl)cc1Cl
- EC50 (Protein RecA): 7.56 µM (active)
- AC50 [2]: 21.8 µM (active)

SMILES: O=C(NNC(=S)NC(=O)c1ccco1)c1ccc(NC(=O)c2ccccc2)cc1
- EC50 (Streptococcus): 9.14 µM (active)
- EC50 [4]: 0.973 µM (active)
- EC50 (Streptokinase A): > 150 µM (not active)

SMILES: CCn1c2ccccc2c2cc(CN3CCN(Cc4cc(OC)ccc4O)CC3)ccc21
- CC50 [1]: > 40 µM (active)
- EC50 [5]: 1.21 µM (active)
- EC50 [6]: > 60 µM (not active)

SMILES: O=C1N=C(Nc2ccccc2)S/C1=C\C=C\c1ccco1
- CC50 [1]: 39.3 µM (active)

SMILES: CC12CCC(C(=O)Nc3cccc(Cl)c3Cl)([C@H](Br)C1=O)C2(C)C (some centres undefined)
- EC50 (Streptococcus): > 150 µM (not active)
- EC50 [4]: > 150 µM (not active)
- EC50 (Streptokinase A): > 150 µM (not active)

SMILES: CC1=NC2(O)c3ccccc3C(=O)C2(O)/C1=C(/O)OC(C)C (centres undefined)
- EC50 (Protein RecA): 14.7 µM (active)
- AC50 [2]: 21.2 µM (active)

SMILES: O=[N+]([O-])c1cc(Cl)c(O)c(-[n+]2c(-c3ccccc3)cc(-c3ccccc3)cc2-c2ccccc2)c1.[O-][Cl+3]([O-])([O-])[O-]
- CC50 [1]: > 40 µM (active)
